Publication PMC4884984, “Identification of approved and investigational drugs that inhibit hypoxia-inducible factor-1 signaling” (Oncotarget, 2016)
Where two headings read alike, the source gives them in different places. *1 amine or outer side, *2 acyl side, *3 side chain or, on linkers, in order; H or OH if unused. Where a SMILES comes first, the peptide text is derived from it. Bridges are numbered along the chain shown (N, C = ends). Roman numbers before positions name the chains, in order. [ ]: non-standard residue; d: D form. Actinocin(9to1) = Cc1c2oc3c(C)ccc(C(=O)[*:1])c3nc-2c(C(=O)[*:2])c(N)c1=O; NMeV = CN[C@H](C(=O)O)C(C)C; Sar = CNCC(=O)O

Columns and labels:
HRE–bla ME-180 cells = assay: Viability (BLA): CellTiter-Glo counter screen in HRE–bla cells; assay type: cell-based, human; settings: for IC50 / Emax: Table S7, confirmatory screen; for IC50: 1% O2, 18 h; for Emax: read-out: Viability (BLA) confirmatory Efficacy; for Viability (BLA) confirmatory IC50: Table S7, 1% O2, 18 h
Protocol: (§1) Cell culture of HRE–bla ME-180 cells (Cat. No. K1644, Life Technologies) and HRE–bla assay were conducted according to a reported protocol [6]. […] The fluorescence signals (460/25 nm and 530/20 nm) of CCF4 and luminescence signals of CellTiter-Glo were acquired on an Envision and a ViewLux plate readers (Perkin Elmer), respectively.

[1] = test system: hypoxia response element-beta-lactamase (HRE–bla); assay: HRE-bla reporter gene assay in ME-180 cells; assay type: cell-based, human; settings: Table S7, confirmatory screen; for Emax: read-out: HRE–bla confirmatory Efficacy; for IC50: read-out: HRE–bla confirmatory IC50
Protocol: as §1

HCT116 cells = assay: Cancer cell proliferation assay, HCT116; assay type: cell-based, human; settings: Table S8; 3 days
Protocol: (§2) HCT116 and ME-180 cells (ATCC) were cultured according to manufacturer's instructions. […] Cell proliferation was quantified as relative luminescence unit (RLU) values using CellTiter-Glo viability assay reagent on a ViewLux plate reader (Perkin Elmer).

ME-180 cells = assay: Cancer cell proliferation assay, ME-180; assay type: cell-based; settings: Homo sapiens, ME-180, 72 h, Table S8, 3 days
Protocol: as §2

HIF-1α–NanoLuc = HIF-1α–NanoLuc reporter gene assay (qHTS primary and confirmatory screens); assay type: cell-based, human
[2] = test system: HIF-1α–NanoLuc HCT116 cells; assay: Viability (Luc): CellTiter-Glo counter screen in HIF-1α–NanoLuc cells; assay type: cell-based, human; settings: for Viability (Luc) confirmatory IC50: Table S7, 1% O2, 18 h; for IC50: 1% O2, 18 h
[3] = Homo sapiens, Table S7, confirmatory screen, read-out: HIF-1α–NanoLuc confirmatory Efficacy
[4] = Homo sapiens, Table S7, confirmatory screen, read-out: HIF-1α–NanoLuc confirmatory IC50
[5] = Homo sapiens, Table S7, primary screen, read-out: HIF-1α–NanoLuc primary Efficacy
[6] = Homo sapiens, Table S7, primary screen, read-out: HIF-1α–NanoLuc primary IC50
[7] = Homo sapiens, read-out: HIF-1α–NanoLuc confirmatory Efficacy
[8] = Homo sapiens, read-out: HIF-1α–NanoLuc confirmatory IC50
[9] = Homo sapiens, read-out: HIF-1α–NanoLuc primary Efficacy
[10] = Homo sapiens, Table S1, primary screen, read-out: Efficacy (primary screen, HIF-1α–NanoLuc assay)
[11] = Homo sapiens, Table S2, validation, read-out: Pathway inhibitors (validation) HIF-1α–NanoLuc Activity Efficacy
[12] = Homo sapiens, Table S2, validation, read-out: Pathway inhibitors (validation) HIF-1α–NanoLuc Activity IC50
[13] = Homo sapiens, HCT-116, Table S7, confirmatory screen
[14] = Homo sapiens, Table S2, primary screen, read-out: Pathway inhibitors (primary screen) HIF-1α–NanoLuc Activity Efficacy
[15] = Homo sapiens, Table S2, primary screen, read-out: Pathway inhibitors (primary screen) HIF-1α–NanoLuc Activity IC50
[16] = Homo sapiens, Table S1, primary screen, hypoxia 1% O2, 18 h, read-out: IC50 (primary screen, HIF-1α–NanoLuc assay)
[17] = Homo sapiens, 18 h, read-out: IC50 (primary screen, HIF-1α–NanoLuc assay)
[18] = Homo sapiens, read-out: Efficacy (primary screen, HIF-1α–NanoLuc assay)

Structure (SMILES) | IC50 (HRE–bla ME-180 cells; Homo sapiens, ME-180) | Emax ([1]; Homo sapiens, ME-180) | IC50 ([1]; Homo sapiens, ME-180) | Emax (HIF-1α–NanoLuc; [3]) | IC50 (HIF-1α–NanoLuc; [4]) | Emax (HIF-1α–NanoLuc; [5]) | IC50 (HIF-1α–NanoLuc; [6]) | Viability (Luc) confirmatory IC50 [2] | Viability (BLA) confirmatory IC50 (HRE–bla ME-180 cells) | further results
COC[C@H]1OC(=O)c2coc3c2[C@@]1(C)C1=C(C3=O)[C@@H]2CCC(=O)[C@@]2(C)C[C@H]1OC(C)=O [Wortmannin] | 11.4 ± 4.79 µM | 91 ± 8% | 0.57 ± 0.17 µM |  |  |  |  |  |  | Emax (HRE–bla ME-180 cells; Homo sapiens, ME-180): 47 ± 11%; HCT116 3-Day Viability IC50 (HCT116 cells): Inactive; Emax (ME-180 cells; read-out: ME-180 3-Day Viability Efficacy): 80 ± 3%; IC50 (ME-180 cells; read-out: ME-180 3-Day Viability IC50): 7 ± 4.33 µM
O=C1NCN(c2ccccc2)C12CCN(CCCOc1ccc(F)cc1)CC2 [AMI-193] | 25.8 ± 4.4 µM |  |  | 48 ± 6% | 12.2 ± 0.83 µM | 57% | 3.35 µM | Inactive |  | HRE–bla confirmatory IC50 [1]: Inactive
CCOC(=O)C1(c2ccccc2)CCN(CCC(C#N)(c2ccccc2)c2ccccc2)CC1 [Diphenoxylate] |  | 60 ± 4% | 7.8 ± 0.53 µM |  |  |  |  | Inactive | Inactive | Emax (HIF-1α–NanoLuc; [7]): 104 ± 12%; IC50 (HIF-1α–NanoLuc; [8]): 13.7 ± 0.93 µM; Emax (HIF-1α–NanoLuc; [9]): 82%; IC50 (HIF-1α–NanoLuc; Homo sapiens, read-out: HIF-1α–NanoLuc primary IC50): 16.8 µM
COc1cc2ncnc(Nc3ccc(F)c(Cl)c3)c2cc1OCCCN1CCOCC1 [Gefitinib] |  | 45 ± 14% |  | 31 ± 3% |  | 86% |  | Inactive | Inactive | Emax (HIF-1α–NanoLuc; [10]): 86%
CC(C)(C)c1nc(-c2cccc(NS(=O)(=O)c3c(F)cccc3F)c2F)c(-c2ccnc(N)n2)s1 [Dabrafenib] |  | 43 ± 1% | 6.4 ± 1.55 µM | 26 ± 13% |  |  |  | Inactive | Inactive | Emax (HIF-1α–NanoLuc; [11]): 26 ± 13%; IC50 (HIF-1α–NanoLuc; [12]): 0.47 ± 0.24 µM
CCCCC(CC)CNC(=N)NC(=N)NCCCCCCNC(=N)NC(=N)NCC(CC)CCCC (centres unmarked) [Alexidine] | 8.83 ± 1.59 µM | 87 ± 18% | 8.78 ± 1.12 µM | 107 ± 2% | 9.35 µM | 126% | 10.6 µM |  |  | IC50 [2, 13]: 18.9 ± 3.53 µM
CO[C@H]1C[C@@H]2CC[C@@H](C)[C@@](O)(O2)C(=O)C(=O)N2CCCC[C@H]2C(=O)O[C@H]([C@H](C)C[C@@H]2CC[C@@H](OC(=O)C(C)(CO)CO)[C@H](OC)C2)CC(=O)[C@H](C)/C=C(\C)[C@@H](O)[C@@H](OC)C(=O)[C@H](C)C[C@H](C)/C=C/C=C/C=C/1C [Temsirolimus] | 27.7 ± 1.87 µM | 86 ± 7% | 15.9 ± 6.91 µM | 92 ± 8% | 34.5 ± 2.34 µM |  |  | Inactive |  | Emax (HRE–bla ME-180 cells; Homo sapiens, ME-180): 116 ± 11%
CC(=O)Oc1ccccc1C(=O)Nc1ncc([N+](=O)[O-])s1 [Nitazoxanide] | 3 ± 0.34 µM | 88 ± 1% | 3 ± 0.34 µM | 101 ± 14% | 17.3 ± 1.17 µM | 150% | 9.44 µM |  |  | IC50 [2, 13]: 9.39 ± 1.08 µM
C=CC(=O)Nc1cc2c(Nc3ccc(F)c(Cl)c3)ncnc2cc1OCCCN1CCOCC1 [Canertinib] | 21.2 ± 2.44 µM | 37 ± 22% | 4.67 ± 7.5 µM | 88 ± 20% | 28.8 ± 10.7 µM | 50% |  | Inactive |  | Emax (HIF-1α–NanoLuc; [14]): 50%; IC50 (HIF-1α–NanoLuc; [15]): 2.37 µM; Emax (HIF-1α–NanoLuc; [11]): 88 ± 20%; IC50 (HIF-1α–NanoLuc; [12]): 24.8 ± 10.7 µM
C#Cc1cccc(Nc2ncnc3cc(OCCOC)c(OCCOC)cc23)c1 [Erlotinib] |  | 59 ± 15% | 7.95 ± 3.47 µM | 35 ± 6% |  | 33% |  | Inactive | Inactive | IC50 (HIF-1α–NanoLuc; [16]): 2.66 µM; Emax (HIF-1α–NanoLuc; [10]): 33%; Emax (HIF-1α–NanoLuc; [14]): 33%; Emax (HIF-1α–NanoLuc; [11]): 35 ± 6%; IC50 (HIF-1α–NanoLuc; [12]): 6.64 ± 2.42 µM
Cc1c2oc3c(C)ccc(C(=O)N[C@@H]4C(=O)N[C@H](C(C)C)C(=O)N5CCC[C@H]5C(=O)N(C)CC(=O)N(C)[C@@H](C(C)C)C(=O)O[C@@H]4C)c3nc-2c(C(=O)N[C@@H]2C(=O)N[C@H](C(C)C)C(=O)N3CCC[C@H]3C(=O)N(C)CC(=O)N(C)[C@@H](C(C)C)C(=O)O[C@@H]2C)c(N)c1=O [Actinomycin D] (I: T[dV]P[Sar][NMeV] / II: T[dV]P[Sar][NMeV]; ester I:1-I:C, II:1-II:C; linker I:N-II:N via Actinocin(9to1)) | 1.52 ± 2.33 µM | 78 ± 5% | 0.02 µM |  |  |  |  | Inactive |  | Effect on HIF-1α–NanoLuc level / luciferase activity, in words (HIF-1α–NanoLuc): caused reduced NanoLuc activity; IC50 (HIF-1α–NanoLuc; [17]): 0.04 µM; Emax (HIF-1α–NanoLuc; [18]): 99%; Emax (HIF-1α–NanoLuc; [7]): 87 ± 4%; IC50 (HIF-1α–NanoLuc; [8]): 0.03 ± 0.01 µM; Emax (HIF-1α–NanoLuc; [9]): 99%
C[C@@H]1C[C@@H]([C@H](O)CC2CC(=O)NC(=O)C2)C(=O)[C@@H](C)C1 [Cycloheximide] | 8.34 ± 4.61 µM | 92 ± 2% | 1.06 ± 0.12 µM |  |  |  |  | Inactive |  | Effect on HIF-1α–NanoLuc level / luciferase activity, in words (HIF-1α–NanoLuc): showed reduced protein turnover and decreased luciferase signal; IC50 (HIF-1α–NanoLuc; [17]): 0.24 µM; Emax (HIF-1α–NanoLuc; [18]): 92%; Emax (HIF-1α–NanoLuc; [7]): 104 ± 5%; IC50 (HIF-1α–NanoLuc; [8]): 0.53 µM; Emax (HIF-1α–NanoLuc; [9]): 92%
Cc1nc(Nc2ncc(C(=O)Nc3c(C)cccc3Cl)s2)cc(N2CCN(CCO)CC2)n1 [Dasatinib] |  | 52 ± 11% | 0.03 ± 0.02 µM | 46 ± 3% |  | 56% | 21.1 µM | Inactive | Inactive | Emax (HIF-1α–NanoLuc; [14]): 82%; IC50 (HIF-1α–NanoLuc; [15]): 0.94 µM; Emax (HIF-1α–NanoLuc; [11]): 46 ± 3%; IC50 (HIF-1α–NanoLuc; [12]): 23.6 ± 8.59 µM
CS(=O)(=O)CCNCc1ccc(-c2ccc3ncnc(Nc4ccc(OCc5cccc(F)c5)c(Cl)c4)c3c2)o1 [Lapatinib] | 20.4 ± 1.33 µM | 78 ± 6% | 11.4 ± 0.75 µM | 50 ± 6% |  | 56% | 33.5 µM | Inactive |  | Emax (HIF-1α–NanoLuc; [11]): 50 ± 6%; IC50 (HIF-1α–NanoLuc; [12]): 20.2 ± 1.31 µM
CNC(=O)c1cc(Oc2ccc(NC(=O)Nc3ccc(Cl)c(C(F)(F)F)c3)cc2)ccn1 [Sorafenib] |  | 98 ± 7% | 17.6 ± 8.6 µM | 100 ± 6% |  | 156% |  | Inactive | Inactive | IC50 (HIF-1α–NanoLuc; [16]): 13.3 µM; Emax (HIF-1α–NanoLuc; [10]): 156%; Emax (HIF-1α–NanoLuc; [14]): 46%; IC50 (HIF-1α–NanoLuc; [15]): 1.5 µM; Emax (HIF-1α–NanoLuc; [11]): 100 ± 6%; IC50 (HIF-1α–NanoLuc; [12]): 23.6 ± 2.71 µM
Nc1nc2nc[nH]c2c(=S)[nH]1 [6-Thioguanine] |  | 88 ± 1% | 7.83 ± 1 µM | 81 ± 7% | 3.26 ± 0.81 µM | 81% | 2.11 µM |  | Inactive | IC50 [2, 13]: 2.3 ± 0.87 µM; Emax ([2]; Homo sapiens, HCT-116, Table S7, confirmatory screen, read-out: Viability (Luc) confirmatory Efficacy): 57 ± 2%
CC(/C=C/C(=O)NO)=C\[C@@H](C)C(=O)c1ccc(N(C)C)cc1 [Trichostatin A] |  |  |  |  |  |  |  | Inactive |  | IC50 (HRE–bla ME-180 cells): 9.68 ± 3.79 µM; Emax (HRE–bla ME-180 cells): 43 ± 13%; Pathway inhibitors (validation) HIF-1α–NanoLuc Activity Efficacy (HIF-1α–NanoLuc; Table S2, validation): 55 ± 4%; IC50 (HIF-1α–NanoLuc; Table S2, validation, read-out: Pathway inhibitors (validation) HIF-1α–NanoLuc Activity IC50): 0.67 ± 0.26 µM; HIF-1α–NanoLuc confirmatory Efficacy (HIF-1α–NanoLuc; Table S7, confirmatory screen): 55 ± 4%; HRE–bla confirmatory Efficacy [1]: 92 ± 11%; IC50 [1]: 12.2 ± 3.9 µM
CCOc1ccc(Cc2nccc3cc(OCC)c(OCC)cc23)cc1OCC [Ethaverine] |  |  |  | 96 ± 2% | 9.39 ± 1.08 µM | 67% | 6.68 µM | Inactive | Inactive | HRE–bla confirmatory IC50 [1]: Inactive
O=C(Nc1ccc(Cl)cc1)Nc1ccc(Cl)c(C(F)(F)F)c1 [Cloflucarban] | 22.9 ± 3.16 µM | 98 ± 1% | 6.8 ± 1.55 µM | 98 ± 4% | 14.3 ± 0.93 µM | 66% | 7.5 µM | Inactive |  | 
c1ccc(CCNc2nc(-c3ccccc3)cs2)cc1 [Fanetizole] |  |  |  | 28 ± 5% | 16.4 ± 3.97 µM | 123% | 26.6 µM | Inactive | Inactive | HRE–bla confirmatory IC50 [1]: Inactive
CC(=O)Oc1ccc(C2(c3ccc(OC(C)=O)cc3)C(=O)Nc3ccccc32)cc1 [Oxyphenisatin acetate] | 0.2 ± 0.01 µM | 92 ± 3% | 0.19 ± 0.01 µM | 55 ± 9% | 2.47 ± 0.79 µM | 84% | 1.33 µM | Inactive |  | 
